Results published in patent US6372446B1, “Method of selectively determining a fungal biomass” (Mycometer ApS, priority 1997, dated 2002).

Tests used:
Test in all cases: Screening of fungi for enzyme activity with 4-methylumbelliferone-labelled substrates
Type in all cases: cell-based
[1] = tested on: Penicillium solitum (IBT 13771); details: substrate 10 μM, 25° C., pH 5; for Enzyme activity: amount of released 4-methylumbelliferone: mineral medium; for Enzyme activity: amount of released 4-methylumbelliferone during 5 hours of incubation: vegetable juice medium
[2] = tested on: Sodaria fimicola (AAS 17); details: substrate 10 μM, 25° C., pH 5; for Enzyme activity: amount of released 4-methylumbelliferone: mineral medium; for Enzyme activity: amount of released 4-methylumbelliferone during 5 hours of incubation: vegetable juice medium
[3] = tested on: Cladosporium herbarum (AGM 8); details: substrate 10 μM, 25° C., pH 5; for Enzyme activity: amount of released 4-methylumbelliferone: mineral medium; for Enzyme activity: amount of released 4-methylumbelliferone during 5 hours of incubation: vegetable juice medium
[4] = tested on: Ascobolus crenulatus (AAS 1); details: substrate 10 μM, 25° C., pH 5; for Enzyme activity: amount of released 4-methylumbelliferone: mineral medium; for Enzyme activity: amount of released 4-methylumbelliferone during 5 hours of incubation: vegetable juice medium
[5] = tested on: Aspergillus versicolor (IBT 13738); details: substrate 10 μM, 25° C., pH 5; for Enzyme activity: amount of released 4-methylumbelliferone: mineral medium; for Enzyme activity: amount of released 4-methylumbelliferone during 5 hours of incubation: vegetable juice medium
[6] = tested on: Paecilomyces farinosus (AGM 5); details: substrate 10 μM, 25° C., pH 5; for Enzyme activity: amount of released 4-methylumbelliferone: mineral medium; for Enzyme activity: amount of released 4-methylumbelliferone during 5 hours of incubation: vegetable juice medium
[7] = tested on: Aureobasidium pullulans (QM 3092); details: substrate 10 μM, 25° C., pH 5; for Enzyme activity: amount of released 4-methylumbelliferone during 5 hours of incubation: Aureobasidium pulluians (QM 3092), vegetable juice medium; for Enzyme activity: amount of released 4-methylumbelliferone: Aureobasidium pullulans (QM 3092), mineral medium
[8] = tested on: Trametes versicolor (AGM 24); details: substrate 10 μM, 25° C., pH 5; for Enzyme activity: amount of released 4-methylumbelliferone: mineral medium; for Enzyme activity: amount of released 4-methylumbelliferone during 5 hours of incubation: vegetable juice medium
[9] = tested on: Rhizomucor pusillus (AAS 300); details: substrate 10 μM, 25° C., pH 5; for Enzyme activity: amount of released 4-methylumbelliferone: mineral medium; for Enzyme activity: amount of released 4-methylumbelliferone during 5 hours of incubation: vegetable juice medium
[10] = tested on: Aspergillus oryzae (AGM 11); details: substrate 10 μM, 25° C., pH 5; for Enzyme activity: amount of released 4-methylumbelliferone: mineral medium; for Enzyme activity: amount of released 4-methylumbelliferone during 5 hours of incubation: vegetable juice medium
[11] = tested on: Mucor racemosus (AAS 310); details: substrate 10 μM, 25° C., pH 5; for Enzyme activity: amount of released 4-methylumbelliferone: mineral medium; for Enzyme activity: amount of released 4-methylumbelliferone during 5 hours of incubation: vegetable juice medium
[12] = tested on: Schizophyllum commune (AGM 25); details: substrate 10 μM, 25° C., pH 5; for Enzyme activity: amount of released 4-methylumbelliferone: mineral medium; for Enzyme activity: amount of released 4-methylumbelliferone during 5 hours of incubation: vegetable juice medium
Eurotium sp. (AAS 36) = details: substrate 10 μM, 25° C., pH 5; for Enzyme activity: amount of released 4-methylumbelliferone: mineral medium; for Enzyme activity: amount of released 4-methylumbelliferone during 5 hours of incubation: vegetable juice medium
[13] = tested on: Penicillium commune (IBT 13713); details: substrate 10 μM, 25° C., pH 5; for Enzyme activity: amount of released 4-methylumbelliferone: mineral medium; for Enzyme activity: amount of released 4-methylumbelliferone during 5 hours of incubation: vegetable juice medium

| Enzyme activity: amount of released 4-methylumbelliferone [1] [µmol] | Enzyme activity: amount of released 4-methylumbelliferone during 5 hours of incubation [1] [µmol] | Enzyme activity: amount of released 4-methylumbelliferone [2] [µmol] | Enzyme activity: amount of released 4-methylumbelliferone during 5 hours of incubation [2] | Enzyme activity: amount of released 4-methylumbelliferone [3] [µmol] | Enzyme activity: amount of released 4-methylumbelliferone during 5 hours of incubation [3] [µmol] | Enzyme activity: amount of released 4-methylumbelliferone [4] [µmol] | Enzyme activity: amount of released 4-methylumbelliferone during 5 hours of incubation [4] [µmol] | Enzyme activity: amount of released 4-methylumbelliferone [5] [µmol] | Enzyme activity: amount of released 4-methylumbelliferone during 5 hours of incubation [5] [µmol] | Enzyme activity: amount of released 4-methylumbelliferone [6] [µmol] | Enzyme activity: amount of released 4-methylumbelliferone during 5 hours of incubation [6] [µmol] | Enzyme activity: amount of released 4-methylumbelliferone during 5 hours of incubation [7] [µmol] | Enzyme activity: amount of released 4-methylumbelliferone [7] [µmol] | Enzyme activity: amount of released 4-methylumbelliferone [8] [µmol] | Enzyme activity: amount of released 4-methylumbelliferone during 5 hours of incubation [8] [µmol] | Enzyme activity: amount of released 4-methylumbelliferone [9] [µmol] | Enzyme activity: amount of released 4-methylumbelliferone during 5 hours of incubation [9] | Enzyme activity: amount of released 4-methylumbelliferone [10] [µmol] | Enzyme activity: amount of released 4-methylumbelliferone during 5 hours of incubation [10] | Structure (SMILES) | also measured |
| --- | --- | --- | --- | --- | --- | --- | --- | --- | --- | --- | --- | --- | --- | --- | --- | --- | --- | --- | --- | --- | --- |
| 0 | 0 | 0 | ** (1 ≦ ** 2) | 0 | 0 | 0 | 0 | 0 | 0 | 0 | 0 | 0 | 0 | 0 | 0 | 0 | * (0.4 ≦ * < 1) | 0 | * (0.4 ≦ * < 1) | Cc1cc(=O)oc2cc(O[C@@H]3O[C@H](CO)[C@@H](O[C@@H]4O[C@H](CO)[C@H](O)[C@H](O)[C@H]4O)[C@H](O)[C@H]3O)ccc12 [substrate 8, 4-methylumbelliferyl β-D-lactoside] | Enzyme activity: amount of released 4-methylumbelliferone [11]: 0 µmol; Enzyme activity: amount of released 4-methylumbelliferone during 5 hours of incubation [11]: 0 µmol; Enzyme activity: amount of released 4-methylumbelliferone [12]: 0 µmol; Enzyme activity: amount of released 4-methylumbelliferone during 5 hours of incubation [12]: ** (1 ≦ ** 2); Enzyme activity: amount of released 4-methylumbelliferone (Eurotium sp. (AAS 36)): 0 µmol; Enzyme activity: amount of released 4-methylumbelliferone during 5 hours of incubation (Eurotium sp. (AAS 36)): 0 µmol; Enzyme activity: amount of released 4-methylumbelliferone [13]: 0 µmol; Enzyme activity: amount of released 4-methylumbelliferone during 5 hours of incubation [13]: 0 µmol |
| 0 | 0 | 0 | 0 µmol | 0 | 0 | 0 | 0 | 0 | 0 | 0 | 0 | 0 | 0 | 0 | 0 | 0 | 0 µmol | 0 | 0 µmol | Cc1cc(=O)oc2cc(O[C@@H]3O[C@H](C)[C@H](O)[C@H](O)[C@H]3O)ccc12 [substrate 11, 4-methylumbelliferyl β-D-fucoside] | Enzyme activity: amount of released 4-methylumbelliferone [11]: 0 µmol; Enzyme activity: amount of released 4-methylumbelliferone during 5 hours of incubation [11]: 0 µmol; Enzyme activity: amount of released 4-methylumbelliferone [12]: 0 µmol; Enzyme activity: amount of released 4-methylumbelliferone during 5 hours of incubation [12]: 0 µmol; Enzyme activity: amount of released 4-methylumbelliferone (Eurotium sp. (AAS 36)): 0 µmol; Enzyme activity: amount of released 4-methylumbelliferone during 5 hours of incubation (Eurotium sp. (AAS 36)): 0 µmol; Enzyme activity: amount of released 4-methylumbelliferone [13]: 0 µmol; Enzyme activity: amount of released 4-methylumbelliferone during 5 hours of incubation [13]: 0 µmol |
